Experimental data as given in patent US20040082558A1, “Administration of estradiol metabolites for inhibition of drug-induced nephrotoxicity” (priority 2002, published 2004).

What was measured:
Format in all cases: in vivo, rat
[1] = test system: PAN-nephropathic rats; assay: Acute measurements of renal hemodynamics and excretory function at 12 weeks; conditions: 12 weeks of treatment
Experimental: (§1) After baseline metabolic parameters were measured, animals were randomly assigned to receive subcutaneous saline (3 ml/kg; Control group, n=9) or puromycin aminonucleoside (PAN) (75 mg/kg; drug-induced nephrotoxic animals, n=26). PAN is a drug widely used to produce drug-induced nephrotoxicity in laboratory animals. Grond, J., et al., Contributions to Nephrology 60:83 (1988), the disclosure of which is incorporated herein by reference. Injections of PAN (20 mg/kg) were repeated after 2, 4, 8 and 10 weeks of treatment. Three hours after the initial injections, control animals were implanted with osmotic minipumps (model 2ML4, Alza, Palo Alto, Calif.) containing vehicle (polyethylene glycol 400, 2.5 μl/hour), whereas PAN-treated animals were implanted with osmotic minipumps containing either vehicle (PAN group, n=13) or 2-hydroxyestradiol (10 μg/kg/hour, PAN+2OHE group, n=13). Assignment to the PAN and PAN+2OHE groups was random. Six animals in the PAN group and 2 animals in the PAN+2OHE group died during the treatment, and these animals were not used in the final data analysis.
At 12 weeks into treatment, animals were anesthetized with pentobarbital (45 mg/kg i.p.) and instrumented for measurements of renal hemodynamics and excretory function. Two polyethylene (PE)-50 catheters were inserted into left jugular vein for delivery of supplemental anesthetics and saline infusion (50 μl/min), respectively. Another PE-50 catheter was inserted into left carotid artery and connected to a blood-pressure analyzer (Micro-Med., Inc., Louisville, Ky.) for continuous measurement of blood pressure and heart rate. A PE-10 catheter was inserted into the left ureter to facilitate collection of urine, and a flow probe (Model 1RB; Transonic Systems, Inc., Ithaca, N.Y.) was placed on the left renal artery for determination of renal blood flow, which was used to calculate renal vascular resistance. Next, an infusion of ^14C-inulin (0.035 μCi/20 μl saline/min) was initiated and after 60 minutes, two 30-minute clearance periods were conducted. A mid-point blood sample (300 μl) was collected and plasma and urine ^14C-inulin radioactivity was measured. Renal clearance of ^14C-inulin was calculated as an estimate of glomerular filtration rate.

[2] = test system: proliferating cell nuclear antigen (PCNA); assay: Glomerular immunohistochemical staining for PCNA, quantitative image analysis; conditions: 12 weeks of treatment, kidney sections
Experimental: (§2) Animals were killed by an overdose of anesthetic and kidneys were removed and weighed. One kidney was fixed in 10% formalin buffer and the second kidney was quick-frozen in liquid nitrogen and stored at −70° C. Kidney tissue samples were sectioned and processed into paraffin blocks for light microscopy. For labeling of collagen IV, renal cortical segments (5 μm) were incubated overnight at 4° C. with rabbit anti-mouse collagen IV antibody (dilution 1/500 ) obtained from Chemicon International Inc. (Temecula, Calif.). A primary monoclonal mouse antibody ( 1/200 dilution; Dako Corporation, Carpenteria, Calif.) was used to label proliferating cell nuclear antigen (PCNA). […] Nonspecific staining was assessed by replacing the primary antibody with phosphate buffered saline. […] Immunochemical staining for collagen IV and PCNA quantitatively was done with a SAMBA 4000 image analyzer (Image Products International, Chantilly, Va.) using specialized computer software (Immuno-Analysis, version 4.1, Microsoft, Richmond, Wash.), a color video camera and a Compaq computer. […] Ten high power fields (×400) were assessed for staining density or positively marked cells for ED-1. […] Staining intensity of positive areas was also assessed (mean optical density) and a mean quick score was then calculated (mean optical density×labeling index).

[3] = test system: ED1 positive cells; assay: Immunohistochemical staining for ED1 positive cells (macrophage infiltration) in glomeruli and interstitium; conditions: 12 weeks of treatment, kidney sections
Experimental: as §2

[4] = test system: PAN-treated rats; assay: Mortality during 12-week treatment of PAN-treated rats; conditions: n=13 per group
Experimental: as §1

[5] = test system: PAN-nephropathic rats; assay: Metabolic cage measurements (24-hour urine, intake, plasma) in PAN-nephropathic rats
Experimental: A total of thirty-five, male Sprague Dawley rats (approximately 290 grams) were used. Rats were housed in the University of Pittsburgh Medical Center animal care facility (temperature, 22° C.; light cycle, 12 hours; relative humidity, 55%). Animals were fed Pro Lab RMH 3000 rodent diet (PMI Nutrition Inc., St Louis, Mo.) and were given water ad libitum. Institutional guidelines for animal welfare were followed, and the University of Pittsburgh Institutional Animal Care and Use Committee approved experimental protocols.
Before initiating treatment, and 3, and 6 and 11 weeks into the treatments, animals were placed in metabolic cages and allowed to acclimatize for two days before conducting the 24-hour measurements of urine volume, food and water intake and urinary sodium, potassium, creatinine, and protein excretion. Tail vein blood samples were also taken for measurement of plasma sodium, potassium, albumin and creatinine. Plasma and urine samples were analyzed for sodium and potassium concentrations using a flame photometer (Model IL-943; Instrumentations Laboratory Inc., Lexington, Ma.) and for creatinine concentrations using a creatinine analyzer (Creatinine Analyzer 2, Beckman Instrument, Inc., Fullerton Calif., USA). Total urine proteins were measured by a spectrophotometric assay using bicinchoninic acid reagent (Pierce; Rockford, Ill.) and a modification of Lowry method. Lowry, O. H., et al., J. Biol. Chem. 193: 265 (1951), the disclosure of which is incorporated herein by reference.
as §1

[6] = test system: PAN-nephropathic rats; assay: Plasma testosterone radioimmunoassay; conditions: 12 weeks of treatment, male rats
Experimental: An aliquot of mid-point blood sample drawn during the first clearance period was used for testosterone measurements. Plasma testosterone levels were determined by radioimmunoassay using a commercial kit provided by ICN Biomedicals, Inc. (Costa Mesa, Calif.) according to the protocol of the manufacturer.

[7] = test system: collagen IV; assay: Glomerular immunohistochemical staining for collagen IV, quantitative image analysis; conditions: 12 weeks of treatment, kidney sections
Experimental: as §2

CN(C)c1ncnc2c1ncn2[C@@H]1O[C@H](CO)[C@@H](N)[C@H]1O [PAN, puromycin aminonucleoside]
Blood pressure (in words) [1]: increased blood pressure | GFR, inulin clearance (in words) [1]: decreased renal blood flow, renal plasma flow, hematocrit and glomerular filtration rate | Hematocrit [1]: 27 ± 2% | Left Kidney [1]: 2.10 ± 0.13 g | Glomerular Filtration Rate ([1]; 14C-inulin clearance): 0.21 ± 0.07 ml/min/g kidney | Body Weight ([1]; acute experiment): 368 ± 15 | Mean Blood Pressure ([1]; anesthetized): 153.0 ± 6.1 mm Hg | Renal Blood Flow ([1]; anesthetized): 2.73 ± 0.24 ml/min/g kidney | Renal Plasma Flow ([1]; anesthetized): 2.00 ± 0.19 ml/min/g kidney | Renal Vascular Resistance ([1]; anesthetized): 63.6 ± 7.6 mm Hg/ml/min/g kid | Urine Volume ([1]; anesthetized): 4.43 ± 0.85 μl/min/g kidney | Labeling index of glomerular immunoreactive PCNA (in words, FIG. 3) [2]: markedly expanded | Number of ED1 positive cells in glomeruli and interstitium (in words, FIG. 4) [3]: several-fold increase in the number of ED1 positive cells | Animals died during the treatment [4]: Six | Body Weight ([5]; 0 wks of treatment (baseline)): 293 ± 4 g | Creatinine Excretion ([5]; 0 wks of treatment (baseline)): 14.9 ± 2.5 mg/day | FE - K+ (fractional excretion of potassium) ([5]; 0 wks of treatment (baseline)): 10.5 ± 0.7% | FE - Na+ (fractional excretion of sodium) ([5]; 0 wks of treatment (baseline)): 0.13 ± 0.01% | Fluid Intake ([5]; 0 wks of treatment (baseline)): 5.33 ± 0.37 mL/h/kg | Food Intake ([5]; 0 wks of treatment (baseline)): 75 ± 2 g/kg/day | Plasma Cholesterol ([5]; 0 wks of treatment (baseline)): 53.6 ± 2.3 mg/dL | Potassium Excretion ([5]; 0 wks of treatment (baseline)): 10.9 ± 0.72 mEq/day/kg | Sodium Excretion ([5]; 0 wks of treatment (baseline)): 4.48 ± 0.95 mEq/day/kg | Urine Volume ([5]; 0 wks of treatment (baseline)): 1.78 ± 0.275 mL/h/kg | Body Weight ([5]; 3 wks of treatment): 313 ± 1 g | Creatinine Excretion ([5]; 3 wks of treatment): 11.1 ± 1.1 mg/day | FE - K+ (fractional excretion of potassium) ([5]; 3 wks of treatment): 27.3 ± 3.7 % | FE - Na+ (fractional excretion of sodium) ([5]; 3 wks of treatment): 0.37 ± 0.06% | Fluid Intake ([5]; 3 wks of treatment): 7.58 ± 0.667 mL/h/kg | Food Intake ([5]; 3 wks of treatment): 74 ± 4 g/kg/day | Plasma Cholesterol ([5]; 3 wks of treatment): 353 ± 39.4 mg/dL | Potassium Excretion ([5]; 3 wks of treatment): 10.7 ± 0.82 mEq/day/kg | Sodium Excretion ([5]; 3 wks of treatment): 3.80 ± 0.58 mEq/day/kg | Urine Volume ([5]; 3 wks of treatment): 4.192 ± 0.462 mL/h/kg | Body Weight ([5]; 6 wks of treatment): 337 ± 15 g | Creatinine Excretion ([5]; 6 wks of treatment): 8.8 ± 0.9 mg/day | FE - K+ (fractional excretion of potassium) ([5]; 6 wks of treatment): 30.1 ± 4.6 % | FE - Na+ (fractional excretion of sodium) ([5]; 6 wks of treatment): 0.71 ± 0.13 % | Fluid Intake ([5]; 6 wks of treatment): 6.92 ± 0.542 mL/h/kg | Food Intake ([5]; 6 wks of treatment): 69 ± 3 g/kg/day | Plasma Cholesterol ([5]; 6 wks of treatment): 283.5 ± 39.5 mg/dL | Potassium Excretion ([5]; 6 wks of treatment): 8.39 ± 0.61 mEq/day/kg | Sodium Excretion ([5]; 6 wks of treatment): 3.92 ± 0.38 mEq/day/kg | Urine Volume ([5]; 6 wks of treatment): 3.9 ± 0.512 mL/h/kg | Body Weight ([5]; 11 wks of treatment): 382 ± 27 g | Creatinine Excretion ([5]; 11 wks of treatment): 18.7 ± 3.0 mg/day | FE - K+ (fractional excretion of potassium) ([5]; 11 wks of treatment): 47.1 ± 7.7 % | FE - Na+ (fractional excretion of sodium) ([5]; 11 wks of treatment): 1.18 ± 0.35 % | Fluid Intake ([5]; 11 wks of treatment): 6.62 ± 0.708 mL/h/kg | Food Intake ([5]; 11 wks of treatment): 53 ± 5 g/kg/day | Plasma Cholesterol ([5]; 11 wks of treatment): 349.6 ± 43.0 mg/dL | Potassium Excretion ([5]; 11 wks of treatment): 9.63 ± 1.60 mEq/day/kg | Sodium Excretion ([5]; 11 wks of treatment): 4.18 ± 0.58 mEq/day/kg | Urine Volume ([5]; 11 wks of treatment): 4.712 ± 0.692 mL/h/kg | Creatinine clearance (in words, FIGS. 1B and 1C) ([5]; chronic treatment): reduced creatinine clearance | Plasma creatinine levels (in words, FIG. 1A) ([5]; chronic treatment): increased plasma creatinine levels | Urinary protein excretion (UPE; in words, FIG. 2A) ([5]; chronic treatment): induced severe proteinuria | Plasma testosterone levels [6]: 0.92 ± 0.27 ng/mL | Glomerular collagen IV, labeling index (in words, FIGS. 5 and 6) [7]: significant increase in glomerular collagen IV content
